The text below walks through data of US20240238274A1, “INHIBITORS OF UBIQUITIN SPECIFIC PEPTIDASE 22 (USP22) AND USES THEREOF FOR TREATING DISEASE AND DISORDERS” (Northwestern University, priority 2021, published 2024).

Molecules are shown by their SMILES.

For test [1], the system named is Usp22 and Usp21 expression in iTreg cells. As to the kind of experiment: In vitro iTreg cell TGF-β assay, USP mRNA level. The format is cell-based. Particulars: TGF-β added, inhibitor 25 μg/mL. The source says: FIG. 8: TGF-β induces expression of Usp22 and Usp21 in Treg cells. A, Visual representation of Tumor Conditioned Media (TCM) experiments. B, iTreg USP mRNA level under TGF-β induction post-polarization. Usp22: n=18-19; Usp21: n=7-8; Usp7: 4-5. C, iTreg USP mRNA level under TGF-β with and without a TGF-β inhibitor. Usp22: n=3-11; Usp21: n=8-18; Usp7: 3-8. D, Treg FoxP3 mRNA level with TGF-β induction (n=10). B-D, All mRNA values calculated relative to WT untreated iTreg cells. E, TGF-β level in B16, LLC1 and EG7 tumor conditioned media (n=3). F-H, Correlation between USP induction and TGF-β level in the tumor conditioned media. Usp22: n=3-10; Usp21: n=3-8; Usp7: n=3-6. I, TGF-β mRNA level of control or TGF-β shRNA treated B16 cells (n=3). J, mRNA level of Usp22 in sorted itTreg cells from mice injected with shRNA treated B 16 cells (n=4). B, D, and I, Two-tailed unpaired t-test was performed to determine statistical significance. C and E Ordinary one-way Anova with multiple comparisons between groups was performed to determine statistical significance. All data are presented as mean±stdev. NS, not significant. *P<0.05, **P<0.01, ***P<0.001, ****P<0.0001.
Many types of tumors secrete large amounts of TGF-β, which dampens immune responses and promotes metastasis (21, 22). […]

The test system of test [2] is USP mRNA level in nTreg and iTreg cells. Put plainly: In vitro inhibitor assays, USP mRNA level in Treg cells. Type of test: cell-based. The note with it: 24 hours. The method, then: FIG. 3: Usp22 and Usp21 are required for FOXP3 stability in nTreg cells under environmental and metabolic stress found in the TME. All mRNA values calculated relative to unchallenged WT Treg cells. A, nTreg USP mRNA level in normoxic (21% O2) verses hypoxic (1% O2) conditions after 24 hours (n=6-13). B, FOXP3 MFI change in 22KO nTreg cells relative to WT nTreg cells after 72 hours in normoxic (21% O2) verses hypoxic (1% O2) conditions (n=5). C, nTreg USP mRNA level after treatment with dMOG for 24 hours (n=6). D, USP mRNA level in nTreg cells after exposure to glucose-restricted (0.5 mM) conditions after 24 hours relative to normal media (11 mM glucose) (n=7-18). E, Relative FOXP3 MFI change in nTreg cells from control and cells cultured under low glucose conditions after 48 hours (n=3). F, nTreg USP mRNA level under amino acid starvation for 24 hours (n=5-9). […]
Along with the competition for glucose, a scarcity of amino acids within tumors may also alter immune cell function (35). […] So, we treated Treg cells with an inhibitor of mitochondrial ATP synthase, Oligomycin A, and measured USP mRNA levels.
All nTreg and iTreg cells were plated as described above DMOG (Sigma Catalog #D3695) was administered to the cells in relevant experiments at 1 mM for 24 hours. […] FOXP3 protein level was assessed via flow cytometry following 48 hours of treatment of inhibitors described above. […]

As to `CC(C)(O)c1cc(Nc2cc(Oc3cn(C4CC4)nc3C3CCOCC3)ccn2)ccn1` [LY 3200882], in test [1], the “TGF-β-induced increase of Usp22 and Usp21 expression” value is given as “largely diminished”. `CC[C@H]1/C=C/C=C/C[C@@H](C)[C@H](O)[C@@](C)(O)C(=O)[C@@H](C)[C@H](O)[C@@H](C)C(=O)[C@@H](C)[C@H](O)[C@@H](C)/C=C/C(=O)O[C@@H]2[C@H](C)[C@H](CC1)O[C@]1(CC[C@H](C)[C@H](C[C@@H](C)O)O1)[C@H]2C` [Oligomycin A]: the “USP mRNA level” value in test [2] (nTreg cells, 1 μM) is “increased both Usp22 and Usp21, but not Usp7”. Consider `COC(=O)CNC(=O)C(=O)OC` [dMOG, dimethyloxalylglycine], for which the “Usp22 mRNA level” value in test [2] (nTreg and iTreg cells, 1 mM) is reported as “increased Usp22 mRNA level”.
